Laboratory results taken from US8592363B2, “ψεrack peptide composition and method for protection against tissue damage due to ischemia” (The Board of Trustees of the Leland Stanford Junior …, priority 2000, dated 2013).

Assays:
[1] = system: ex vivo rat hearts; test: Ex vivo administration of ψεRACK prior to ischemia: CPK release in perfusate of Langendorff-perfused hearts; settings: 0.5 μM peptide for 20 minutes prior to 45 minutes global ischemia; 30 minute reperfusion; FIG. 1A
Protocol: Animals were anesthetized as described in Example 1 and their hearts were rapidly removed and cannulated for perfusion on a Langendorff apparatus. Hemodynamic parameters were monitored until stabilized, typically for 10-20 minutes. After equilibration, ψεRACK peptide (SEQ ID NO:2) or a scrambled ψεRACK peptide (SEQ ID NO:4) were delivered to the hearts via the coronary arteries using 0.5 μM of peptide for 20 minutes.
To induce global ischemia, flow to the hearts was interrupted for 45 minutes. The hearts were then reperfused for 30 minutes. During reperfusion, ischemic-induced cell damage was determined by measuring the activity of creatine phosphokinase (absorbance at 520 nm) in the perfusate. […]
Mice or rats were anesthetized with i.p. avertin, and their hearts were rapidly removed and cannulated via the aorta for reperfusion as described in the art (Colbert et al, 1997). […] The left ventricular pressure and real-time derivative (dP/dt) were monitored via a catheter placed in the ventricular apex. […]
To induce global ischemia, flow was interrupted for 45 minutes. […] During reperfusion, ischemia-induced cell damage was determined by measuring the activity of creatine phosphokinase (CPK) (absorbance at 520 nm) in the perfusate using a Sigma kit.

[2] = system: pig heart; test: In vivo administration during LAD balloon occlusion in pigs: infarct area of area at risk; settings: for infarct of area at risk: about 20 μg peptide during first 10 minutes of 30 minute occlusion, hearts analysed five days later, average, p<0.005
Protocol: In another study in support of the invention, the ability of ψεRACK peptide to protect tissue from damage due to an ischemic or hypoxic event was evaluated by administering the peptide in vivo. As detailed in Example 3, ψεRACK peptide (SEQ ID NO:2) or scrambled ψεRACK peptide (SEQ ID NO:4) was administered to adult pigs during the first 10 minutes of a 30 minutes ischemic insult. Five days later, the hearts were analyzed for tissue damage.
Young adult female pigs, 35-40 kg in weight, were anesthetized and a catheter was introduced through the carotid artery into the heart. Using conventional intervention cardiology techniques, a wire was placed through a catheter and into the left anterior descending artery (LAD): A balloon was run over this wire to a site of occlusion where it was then inflated to block blood flow for 30 minutes. During the first 10 minutes of the ischemic insult, either the control scrambled ψεRACK peptide (SEQ ID NO:4, n=5) or the biologically active RACK peptide (SEQ ID NO:2, n=5) was delivered by diffusion through the balloon directly downstream of the occlusion. Approximately 20 μg peptide (˜400 ng per kg body weight) was administered.
After 30 minutes of occlusion, the balloon was removed and pigs were left to recover from surgery. Five days later, the pigs were euthanized and hearts were harvested. After heart removal, the LAD was occluded. With the occlusion in place, Evans Blue dye, which stains all areas not at risk of infarct in blue while leaving all areas with no access to blood flow red, was infused. Hearts were then cut into slices and stained with a tetrazolium red dye which stains all live areas red and infarcted dead tissue in white. Each heart had multiple tissue slices with distinctive areas marking the area at risk for ischemia and the infarcted area. From this the percent infarct per area at risk for each slice and for the entire heart was determined.

[3] = system: whole rat hearts; test: Ex vivo administration of ψεRACK after ischemia: CPK release in perfusate during reperfusion; settings: 0.5 μM peptide for first 20 minutes of reperfusion after 45 minutes ischemia; 60 minute period; FIG. 3B
Protocol: In another study performed in support of the invention, ψεRACK was administered to hearts ex vivo after a prolonged ischemic period and was effective to provide protection from ischemic injury. As described in Example 2, whole rat hearts were perfused on a Langendorff apparatus. After a 30 minute equilibration period, global ischemia was induced by stopping fluid flow for 45 minutes. The hearts were then reperfused with or without ψεRACK peptide for 20 minutes followed by 40 minutes perfusion without peptide. During the 60 minutes following ischemia (20 minutes of peptide reperfusion plus 40 minutes perfusion), the CPK activity in the perfusate was analyzed.
Rat hearts were prepared as described in Example 1. After a 30 minute equilibration period, global ischemia was induced by interrupting fluid flow for 45 minutes. The hearts were then reperfused with 0.5 μM of ψεRACK peptide for 20 minutes, followed by 40 minutes of reperfusion without the peptide. As a control, some hearts were left untreated after ischemia. During the 60 minute period following ischemia, ischemia-induced cell damage was determined by monitoring the creatine phosphokinase (CPK) activity (absorbance at 520 nm) in the perfusate collected during reperfusion.

[4] = system: ex vivo hearts; test: Functional recovery of ex vivo hearts after global ischemia (left ventricle pressure, dP/dt, perfusion pressure); parameters: species or system Mice or rats; settings: 500 nM peptide prior to 30 minute global ischemia; 30 minute reperfusion
Protocol: In another study in support of the invention, the functional recovery of ex vivo hearts after an ischemic event was evaluated by monitoring, the isovolumic left ventricle pressure (LVP) at a constant pacing (3.3 Hz) and at a constant coronary flow (10 mL/min), as described in Example 1. Prior to the ischemic event, the hearts were treated with 500 nM ψεRACK (SEQ ID NO:2) or with scrambled ψεRACK peptide (SEQ ID NO:4). After the 30 minute global ischemia, the hearts were monitored during a 30 minute reperfusion period.
Mice or rats were anesthetized with i.p. avertin, and their hearts were rapidly removed and cannulated via the aorta for reperfusion as described in the art (Colbert et al, 1997). Care was taken to have the hearts perfused within 90 seconds of removal. The left ventricular pressure and real-time derivative (dP/dt) were monitored via a catheter placed in the ventricular apex. Hemodynamic parameters were archived every 20 seconds throughout the procedure. The hearts were perfused with oxygenated Krebs-Henseleit solution comprised of, in […], NaCl 120; KCl 5.8; NaHCO3 25; NaH2O4 1.2; MgSO4 1.2; CaCl2 1.0; and dextrose 10, pH 7.4 at 37 C.
After a 10-20 minute equilibration period, the hearts were treated with ψεRACK peptide (SEQ ID NO:2) or with scrambled ψεRACK peptide (SEQ ID NO:4) for 20 minutes. […]

[5] = system: pig heart; test: Left ventricurogram (ejection fraction) in pigs after LAD occlusion; assay type: in vivo
Protocol: In another study, left ventricurogram (LVG) was performed in pigs (n=5) at three time points: (1) before occlusion of left anterior descending artery by balloon catheter (before occlusion); (2) immediately after reperfusion with 5 μM/10 mL of ψεRACK (post ψεRACK); and (3) before sacrifice five days later (5 days post), using 6 Fr. of pig-tail catheter. LVG was recorded by two views, right anterior oblique and left anterior oblique. Ejection fraction (EF), the percent of blood ejected in a beat, during maximum contraction, of the total maximum present in the left ventricle, was analyzed by the software, Plus Plus (Sanders Data Systems), and the averages of two views were evaluated. […] Accordingly, delivery of a ψεRACK peptide in vivo after ischemia is effective to reduce cell and tissue damage, as evidenced by an ejection fraction at least 10% greater than that of untreated cells or tissues.

[6] = pigs, 5 days post ischemia and treatment

In the case of “PDYHDAGI (scrambled pseudo-epsilon RACK octapeptide) [scrambled ψεRACK, scrambled ψεRACK octapeptide, negative control, reference compound]”, the “creatine phosphokinase (CPK) release during reperfusion” value [1] is reported as “significant release of CPK” and the “infarct of area at risk” value [2] is reported as 36.5±0.3%.
“HDAPIGYD (pseudo-epsilon RACK octapeptide) [ψεRACK, ψεRACK octapeptide, εPKC specific agonist peptide]” was tested, and the “lower total CPK release versus untreated hearts” value [3] was about 2 fold, the “creatine phosphokinase (CPK) release during reperfusion” value [1] was “close to the control hearts maintained under normoxia conditions” and the “infarct of area at risk” value [2] was 14.9±6%. The “reduction of percent infarct versus scrambled peptide control” value ([2]; infarct area as percent of area at risk, in grams of cardiac tissue, FIG. 4C) was “more than 2 fold”, the coronary perfusion pressure [4] was “reduced” and the “elevated LVP end diastolic pressure” value [4] was “reduced”. For the same sequence, the “ejection fraction after occlusion compared to control animals treated with scrambled peptide” value ([5]; pigs n=5, 5 μM/10 mL ψεRACK, immediately after reperfusion, FIG. 5) was “higher ejection fraction”, the “ejection fraction compared with that before ischemia” value [5, 6] was “on par with that measured prior to ischemia” and the “ejection fraction higher than the untreated animals” value [5, 6] was “about 10%”.
